Source: paper PMC9916978, “Enantioselective Human Serum Albumin Binding of Apremilast: Liquid Chromatographic, Fluorescence and Molecular Docking Study” (International Journal of Molecular Sciences, 2023)

Molecular target: T1, human serum albumin (HSA) (Homo sapiens, UniProt P02768)
T1 construct: purchased Chiral Technologies Inc., a subsidiary of Daicel Chemical Industries Ltd
Assay: Fluorescence quenching titration of HSA, stability constants
Format: binding
Conditions: 10 mM phosphate buffer pH 7, 25 °C, excitation 280 nm
Experimental: The observed fluorescence intensities of HSA and the HSA–APR complexes at increasing APR concentrations were plotted against the total concentration of APR in the solution, and the stability constants were calculated according to Equation (18) by nonlinear parameter fitting.
The fluorescence measurements were carried out on a Jasco J-815 spectropolarimeter with a connected CDF-426L fluorescence detector and a temperature-controlled 10 mm cuvette holder (Jasco, Tokyo, Japan), thermostated to 25 °C with a Lauda water bath circulation thermostat (Lauda Brinkmann, Königshofen, Germany). Spectra Manager software (ver.: 2.08.04) was used for data analysis. The fluorescence analysis was performed with an excitation spectrum of 260–300 nm and detection of the cumulative fluorescence spectrum. […] A volume of 3 mL of the HSA stock solution with an HSA concentration of 0.32 μM was titrated with 2.5–30 μL of S- and, separately, R-APR solutions prepared at 3.75 mg mL^−1 in MeOH, which equals to a range of 6.8–80.6 μM of APR in the measured solution.
The stability constants of both enantiomers were calculated. […] Note that since the fluorescence signal of the ligand (APR) was subtracted for each sample, (IAPR) could be excluded from this equation (8) Iobs.=IHSA·χHSA+IAPR−HSA·χAPR−HSA where ΧHSA is the mole fraction of free HSA, while ΧAPR-HSA is the mole fraction of the APR-HSA complex. […]

T1 sequence (P02768 25-609): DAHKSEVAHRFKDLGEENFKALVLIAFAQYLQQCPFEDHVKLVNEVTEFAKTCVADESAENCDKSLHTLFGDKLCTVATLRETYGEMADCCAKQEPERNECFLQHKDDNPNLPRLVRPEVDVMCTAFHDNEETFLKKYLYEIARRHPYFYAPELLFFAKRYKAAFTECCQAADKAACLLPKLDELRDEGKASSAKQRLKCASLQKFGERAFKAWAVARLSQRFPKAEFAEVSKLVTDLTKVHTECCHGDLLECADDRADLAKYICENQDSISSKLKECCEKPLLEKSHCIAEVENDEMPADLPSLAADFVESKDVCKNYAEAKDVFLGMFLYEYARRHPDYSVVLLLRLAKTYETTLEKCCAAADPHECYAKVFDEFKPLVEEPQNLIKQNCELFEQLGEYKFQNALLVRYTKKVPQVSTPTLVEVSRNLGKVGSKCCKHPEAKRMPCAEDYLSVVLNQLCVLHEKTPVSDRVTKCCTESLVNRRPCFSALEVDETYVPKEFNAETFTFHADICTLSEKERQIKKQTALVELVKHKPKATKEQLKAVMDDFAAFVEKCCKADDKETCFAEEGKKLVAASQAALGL

| stability constant K of the enantiomer–HSA complex [M⁻¹] | Compound |
| --- | --- |
| 6450 | CCOc1cc([C@H](CS(C)(=O)=O)N2C(=O)c3cccc(NC(C)=O)c3C2=O)ccc1OC [R-APR] |
| 10400 | CCOc1cc([C@@H](CS(C)(=O)=O)N2C(=O)c3cccc(NC(C)=O)c3C2=O)ccc1OC [S-APR, apremilast] |
